Data on 17 compounds can be found in ChEMBL document CHEMBL5291721, “A preclinical secondary pharmacology resource illuminates target-adverse drug reaction associations of marketed drugs” (Nat Commun, 2023).

For orientation: AC50 means the concentration at which the activity in the assay is half-maximal.

Some targets named below: Mu-type opioid receptor (Homo sapiens, UniProt P35372); Histamine H3 receptor (Homo sapiens, UniProt Q9Y5N1); D(3) dopamine receptor (Homo sapiens, UniProt P35462); D(1A) dopamine receptor (Homo sapiens, UniProt P21728).
For assay [1], the target named is T1, Thromboxane A2 receptor (Homo sapiens, UniProt P21731).
T1 sequence (P21731 whole entry): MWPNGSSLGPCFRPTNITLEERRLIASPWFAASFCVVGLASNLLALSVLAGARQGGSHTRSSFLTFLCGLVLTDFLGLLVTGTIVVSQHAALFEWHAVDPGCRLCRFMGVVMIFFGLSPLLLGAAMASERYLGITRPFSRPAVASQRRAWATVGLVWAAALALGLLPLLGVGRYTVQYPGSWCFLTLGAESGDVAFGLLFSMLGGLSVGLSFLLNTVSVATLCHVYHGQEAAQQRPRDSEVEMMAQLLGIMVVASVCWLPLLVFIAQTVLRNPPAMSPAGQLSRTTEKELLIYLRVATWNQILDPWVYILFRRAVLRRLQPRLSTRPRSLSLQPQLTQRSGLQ
It is filed as functional, cell-based.

Assay [2] addresses Sodium-dependent dopamine transporter (Homo sapiens, UniProt Q01959).
Assay [3] has as its target 3',5'-cyclic-AMP phosphodiesterase 4A (Homo sapiens, UniProt P27815). It is filed as functional.
Assay [4] concerns the target T2, 5-hydroxytryptamine receptor 1A (Homo sapiens, UniProt P08908).
T2 sequence (P08908 whole entry): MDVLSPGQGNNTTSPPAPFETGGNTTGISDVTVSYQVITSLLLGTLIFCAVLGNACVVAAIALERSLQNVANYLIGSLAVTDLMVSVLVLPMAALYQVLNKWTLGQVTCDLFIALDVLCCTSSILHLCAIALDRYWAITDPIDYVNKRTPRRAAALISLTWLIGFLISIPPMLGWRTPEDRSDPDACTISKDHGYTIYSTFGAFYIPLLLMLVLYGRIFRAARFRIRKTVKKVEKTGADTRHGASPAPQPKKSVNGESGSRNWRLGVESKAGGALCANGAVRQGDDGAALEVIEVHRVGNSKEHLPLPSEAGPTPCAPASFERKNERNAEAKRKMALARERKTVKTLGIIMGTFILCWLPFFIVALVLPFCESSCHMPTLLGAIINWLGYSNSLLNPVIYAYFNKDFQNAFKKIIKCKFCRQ

The target in assay [5] is Prostaglandin G/H synthase 1 (Homo sapiens, UniProt P23219). It is filed as functional.
Another assay addresses Prothrombin (Homo sapiens, UniProt P00734). It is filed as functional.
Assay [6] concerns the target 5-hydroxytryptamine receptor 2B (Homo sapiens, UniProt P41595). Type of assay: functional, cell-based.
The target in assay [7] is Voltage-gated inwardly rectifying potassium channel KCNH2 (Homo sapiens, UniProt Q12809). Type of assay: functional.
Assay [8] concerns the target T3, Alpha-2A adrenergic receptor (Homo sapiens, UniProt P08913).
T3 sequence (P08913 whole entry): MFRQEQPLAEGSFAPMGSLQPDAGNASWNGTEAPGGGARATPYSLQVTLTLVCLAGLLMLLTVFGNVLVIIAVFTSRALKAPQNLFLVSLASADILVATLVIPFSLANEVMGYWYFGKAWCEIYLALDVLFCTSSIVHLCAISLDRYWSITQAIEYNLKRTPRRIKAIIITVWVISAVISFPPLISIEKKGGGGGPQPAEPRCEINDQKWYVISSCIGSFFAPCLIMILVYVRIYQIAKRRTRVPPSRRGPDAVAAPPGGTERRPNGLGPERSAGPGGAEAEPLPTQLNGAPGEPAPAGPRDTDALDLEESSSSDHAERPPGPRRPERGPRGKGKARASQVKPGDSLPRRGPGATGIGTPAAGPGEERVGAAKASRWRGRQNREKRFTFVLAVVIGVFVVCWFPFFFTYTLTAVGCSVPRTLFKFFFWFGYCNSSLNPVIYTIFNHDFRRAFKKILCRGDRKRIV

The target in assay [9] is T1, Thromboxane A2 receptor. Type of assay: functional, cell-based. This is another data set of the same source.
Assay [10] addresses cGMP-inhibited 3',5'-cyclic phosphodiesterase 3A (Homo sapiens, UniProt Q14432). Type of assay: functional.
In assay [11] the target is Sodium-dependent noradrenaline transporter (Homo sapiens, UniProt P23975).
For a further assay, the target named is Acetylcholinesterase (Homo sapiens, UniProt P22303). It is filed as functional.
The next assay deals with Bile salt export pump (Homo sapiens, UniProt O95342). It is filed as functional.
Note: assay procedure not described here.

Sequence of Sodium-dependent noradrenaline transporter (P23975 whole entry): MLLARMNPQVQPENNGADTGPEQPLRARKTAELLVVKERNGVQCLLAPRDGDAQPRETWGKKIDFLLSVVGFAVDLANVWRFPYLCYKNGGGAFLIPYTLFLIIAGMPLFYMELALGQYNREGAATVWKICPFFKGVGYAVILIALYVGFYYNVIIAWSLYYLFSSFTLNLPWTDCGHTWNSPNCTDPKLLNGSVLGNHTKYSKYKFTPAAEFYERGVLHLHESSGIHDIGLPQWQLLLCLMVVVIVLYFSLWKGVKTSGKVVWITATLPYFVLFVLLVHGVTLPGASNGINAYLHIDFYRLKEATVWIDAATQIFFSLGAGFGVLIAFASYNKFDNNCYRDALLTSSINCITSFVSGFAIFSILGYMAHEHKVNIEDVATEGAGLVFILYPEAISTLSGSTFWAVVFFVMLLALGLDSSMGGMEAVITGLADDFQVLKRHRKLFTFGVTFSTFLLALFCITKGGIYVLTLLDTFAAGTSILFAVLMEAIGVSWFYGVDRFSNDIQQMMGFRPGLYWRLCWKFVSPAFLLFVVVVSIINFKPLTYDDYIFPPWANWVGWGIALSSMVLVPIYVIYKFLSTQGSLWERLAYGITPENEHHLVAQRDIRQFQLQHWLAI
Sequence of Mu-type opioid receptor (P35372 whole entry): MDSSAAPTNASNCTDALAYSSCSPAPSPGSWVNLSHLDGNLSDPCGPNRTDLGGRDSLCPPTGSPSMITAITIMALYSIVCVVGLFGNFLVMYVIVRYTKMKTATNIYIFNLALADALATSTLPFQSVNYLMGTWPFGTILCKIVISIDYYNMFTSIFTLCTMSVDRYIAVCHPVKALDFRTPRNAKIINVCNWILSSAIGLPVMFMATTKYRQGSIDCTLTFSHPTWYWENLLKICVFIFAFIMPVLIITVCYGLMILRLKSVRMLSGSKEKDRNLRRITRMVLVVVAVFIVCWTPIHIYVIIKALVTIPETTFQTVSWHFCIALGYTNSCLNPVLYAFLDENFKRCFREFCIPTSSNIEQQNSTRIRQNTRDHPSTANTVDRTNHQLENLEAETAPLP
Sequence of Voltage-gated inwardly rectifying potassium channel KCNH2 (Q12809 whole entry): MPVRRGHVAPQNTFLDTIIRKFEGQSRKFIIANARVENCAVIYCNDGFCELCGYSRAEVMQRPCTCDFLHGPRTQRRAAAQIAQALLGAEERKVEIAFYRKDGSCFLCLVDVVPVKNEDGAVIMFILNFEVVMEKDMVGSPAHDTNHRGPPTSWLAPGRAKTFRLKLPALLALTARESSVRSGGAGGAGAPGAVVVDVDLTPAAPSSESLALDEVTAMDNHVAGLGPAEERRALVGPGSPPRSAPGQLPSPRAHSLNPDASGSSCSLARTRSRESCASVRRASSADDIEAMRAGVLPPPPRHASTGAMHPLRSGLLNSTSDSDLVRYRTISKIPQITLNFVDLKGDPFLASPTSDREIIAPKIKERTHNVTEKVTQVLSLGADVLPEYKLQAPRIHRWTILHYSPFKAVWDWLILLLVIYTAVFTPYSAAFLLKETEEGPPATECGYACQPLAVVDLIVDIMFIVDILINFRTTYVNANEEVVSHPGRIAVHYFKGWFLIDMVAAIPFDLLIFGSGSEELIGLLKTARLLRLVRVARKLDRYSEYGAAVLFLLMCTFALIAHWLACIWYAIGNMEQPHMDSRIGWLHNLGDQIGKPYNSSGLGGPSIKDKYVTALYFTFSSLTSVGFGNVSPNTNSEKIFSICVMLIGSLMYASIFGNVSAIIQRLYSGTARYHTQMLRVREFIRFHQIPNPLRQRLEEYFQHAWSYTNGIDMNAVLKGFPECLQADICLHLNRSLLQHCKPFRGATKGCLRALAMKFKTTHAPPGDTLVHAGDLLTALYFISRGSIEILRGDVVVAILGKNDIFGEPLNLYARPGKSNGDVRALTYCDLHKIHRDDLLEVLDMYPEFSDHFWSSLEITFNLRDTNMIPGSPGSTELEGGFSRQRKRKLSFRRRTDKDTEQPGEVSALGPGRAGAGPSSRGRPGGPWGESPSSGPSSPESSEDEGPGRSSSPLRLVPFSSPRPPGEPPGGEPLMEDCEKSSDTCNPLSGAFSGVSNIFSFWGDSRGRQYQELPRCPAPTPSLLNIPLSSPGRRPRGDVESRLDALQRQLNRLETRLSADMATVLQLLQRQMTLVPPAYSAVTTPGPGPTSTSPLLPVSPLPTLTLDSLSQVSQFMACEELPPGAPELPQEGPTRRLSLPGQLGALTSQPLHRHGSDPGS
Sequence of 5-hydroxytryptamine receptor 2B (P41595 whole entry): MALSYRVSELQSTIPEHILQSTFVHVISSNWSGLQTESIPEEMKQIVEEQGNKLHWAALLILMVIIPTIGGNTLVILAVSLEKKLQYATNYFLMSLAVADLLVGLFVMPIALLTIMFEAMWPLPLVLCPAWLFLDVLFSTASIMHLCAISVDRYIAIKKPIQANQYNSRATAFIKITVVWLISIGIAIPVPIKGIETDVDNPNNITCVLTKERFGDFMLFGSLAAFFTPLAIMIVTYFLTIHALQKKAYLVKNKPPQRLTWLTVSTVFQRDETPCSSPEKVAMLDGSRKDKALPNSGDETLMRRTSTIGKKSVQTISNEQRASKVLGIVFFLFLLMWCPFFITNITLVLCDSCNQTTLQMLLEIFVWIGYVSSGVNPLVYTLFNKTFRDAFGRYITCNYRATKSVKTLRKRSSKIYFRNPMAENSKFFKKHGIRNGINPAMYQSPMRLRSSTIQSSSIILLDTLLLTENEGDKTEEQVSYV
Sequence of Histamine H3 receptor (Q9Y5N1 whole entry): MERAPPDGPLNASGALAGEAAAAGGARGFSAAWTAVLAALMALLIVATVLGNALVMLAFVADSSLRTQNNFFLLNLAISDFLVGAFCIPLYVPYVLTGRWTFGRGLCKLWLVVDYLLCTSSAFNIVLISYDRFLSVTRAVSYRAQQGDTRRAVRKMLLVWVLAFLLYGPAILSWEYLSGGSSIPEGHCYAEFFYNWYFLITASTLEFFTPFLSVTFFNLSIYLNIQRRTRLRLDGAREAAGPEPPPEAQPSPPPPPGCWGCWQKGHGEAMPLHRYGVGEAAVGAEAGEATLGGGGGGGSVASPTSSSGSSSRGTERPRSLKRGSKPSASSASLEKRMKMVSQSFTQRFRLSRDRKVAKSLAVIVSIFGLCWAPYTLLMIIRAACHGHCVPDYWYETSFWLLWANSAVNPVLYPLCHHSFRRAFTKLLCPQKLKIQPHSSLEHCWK
Sequence of D(3) dopamine receptor (P35462 whole entry): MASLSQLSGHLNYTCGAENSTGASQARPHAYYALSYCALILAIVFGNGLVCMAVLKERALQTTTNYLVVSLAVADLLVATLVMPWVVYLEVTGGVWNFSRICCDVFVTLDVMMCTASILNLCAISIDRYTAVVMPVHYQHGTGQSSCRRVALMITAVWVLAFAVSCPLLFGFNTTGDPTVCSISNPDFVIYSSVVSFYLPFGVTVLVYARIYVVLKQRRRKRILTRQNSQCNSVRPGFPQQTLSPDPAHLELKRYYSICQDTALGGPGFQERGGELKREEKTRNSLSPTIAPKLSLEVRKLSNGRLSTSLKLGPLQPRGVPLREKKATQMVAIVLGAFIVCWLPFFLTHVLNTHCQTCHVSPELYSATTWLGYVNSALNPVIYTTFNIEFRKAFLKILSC
Sequence of Acetylcholinesterase (P22303 whole entry): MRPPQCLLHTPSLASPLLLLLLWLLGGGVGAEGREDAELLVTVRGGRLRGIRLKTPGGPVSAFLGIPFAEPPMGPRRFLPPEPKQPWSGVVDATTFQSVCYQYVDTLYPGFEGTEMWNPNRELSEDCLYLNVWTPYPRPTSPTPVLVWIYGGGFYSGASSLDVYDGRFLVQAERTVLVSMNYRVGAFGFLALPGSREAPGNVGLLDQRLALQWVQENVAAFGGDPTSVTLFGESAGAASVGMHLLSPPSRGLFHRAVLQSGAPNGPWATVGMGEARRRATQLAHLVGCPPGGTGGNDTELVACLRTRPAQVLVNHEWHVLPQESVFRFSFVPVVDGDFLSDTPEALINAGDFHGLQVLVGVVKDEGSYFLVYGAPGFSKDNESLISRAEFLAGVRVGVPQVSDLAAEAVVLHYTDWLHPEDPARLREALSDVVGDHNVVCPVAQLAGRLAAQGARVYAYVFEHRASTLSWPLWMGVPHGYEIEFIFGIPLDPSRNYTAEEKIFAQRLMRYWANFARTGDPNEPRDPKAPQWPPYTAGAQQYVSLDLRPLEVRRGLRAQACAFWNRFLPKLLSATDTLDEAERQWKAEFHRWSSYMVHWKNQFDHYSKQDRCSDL
Sequence of Sodium-dependent dopamine transporter (Q01959 whole entry): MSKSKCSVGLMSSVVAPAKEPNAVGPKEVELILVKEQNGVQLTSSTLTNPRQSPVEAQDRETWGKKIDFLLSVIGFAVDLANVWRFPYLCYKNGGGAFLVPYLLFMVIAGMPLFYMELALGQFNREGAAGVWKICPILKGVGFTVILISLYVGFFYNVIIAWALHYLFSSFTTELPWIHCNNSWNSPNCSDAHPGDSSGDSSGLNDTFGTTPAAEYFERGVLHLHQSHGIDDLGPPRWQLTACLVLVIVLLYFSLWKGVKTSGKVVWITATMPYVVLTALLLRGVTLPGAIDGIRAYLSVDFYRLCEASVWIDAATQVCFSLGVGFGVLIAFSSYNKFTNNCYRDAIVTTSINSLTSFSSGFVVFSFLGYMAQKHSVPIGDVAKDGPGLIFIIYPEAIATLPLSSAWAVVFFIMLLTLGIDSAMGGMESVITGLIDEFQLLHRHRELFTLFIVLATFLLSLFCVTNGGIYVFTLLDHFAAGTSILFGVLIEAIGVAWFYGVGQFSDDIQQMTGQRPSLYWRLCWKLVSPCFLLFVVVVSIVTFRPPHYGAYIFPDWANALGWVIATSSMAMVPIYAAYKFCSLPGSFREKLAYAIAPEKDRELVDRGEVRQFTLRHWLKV

Take `O=C(O)COc1ccc(C(=O)c2cccs2)c(Cl)c1Cl`: the half-maximal activity concentration (AC50) (at Thromboxane A2 receptor [1]; in [2]; in assay [3]; in [4]; in assay [5]; on Prothrombin) was over 30 µM each time. Besides, the AC50 (in assay [6]; at Mu-type opioid receptor; on Histamine H3 receptor; in assay [7]; at D(3) dopamine receptor; in assay [8]) was over 30 µM throughout. In addition, the AC50 was over 30 µM at D(1A) dopamine receptor; over 30 µM on Thromboxane A2 receptor [9]; over 30 µM in assay [10]; over 30 µM in assay [11]; over 30 µM at Acetylcholinesterase; over 300 µM at Bile salt export pump.
Turning to `CCCN(CCC)C(=O)Cc1c(-c2ccc(Cl)cc2)nc2ccc(Cl)cn12` [ALPIDEM], the AC50 at Thromboxane A2 receptor [1] is over 10 µM; in [2], over 30 µM; in assay [3] it was over 30 µM; in assay [4], over 30 µM; in assay [5] it was over 30 µM; on Prothrombin, over 30 µM. Further, the half-maximal activity concentration (AC50) was over 30 µM in assay [6]; 15.5 µM on Mu-type opioid receptor; over 30 µM at Histamine H3 receptor; 14.8 µM in [7]; 27.8 µM on D(3) dopamine receptor; over 30 µM in assay [8]. The half-maximal activity concentration (AC50) is over 30 µM at D(1A) dopamine receptor; over 30 µM on Thromboxane A2 receptor [9]; over 30 µM in [10]; over 30 µM in assay [11]; over 30 µM at Acetylcholinesterase; 4.8 µM at Bile salt export pump.
As to `CC(C)Cc1ccc(C(C)C(=O)O)cc1` (stereo not given) [IBUPROFEN], the AC50 (on Thromboxane A2 receptor [1]; in assay [2]; in assay [3]; in assay [4]; on Prothrombin; in assay [6]) was over 30 µM in each case. The half-maximal activity concentration (AC50) (at Mu-type opioid receptor; at Histamine H3 receptor; at D(3) dopamine receptor; in assay [8]; at D(1A) dopamine receptor; at Thromboxane A2 receptor [9]) was over 30 µM throughout. In addition, the AC50 in assay [10] is over 30 µM; in assay [11], over 30 µM; on Acetylcholinesterase it was over 30 µM; on Bile salt export pump it was over 300 µM.
As for `CN1C(C(=O)Nc2ccccn2)=C(O)c2ccccc2S1(=O)=O` [PIROXICAM], the AC50 (at Thromboxane A2 receptor [1]; in assay [2]; in assay [3]; in assay [4]; at Prothrombin; in [6]) was over 30 µM throughout. For the same compound, the half-maximal activity concentration (AC50) (at Mu-type opioid receptor; at Histamine H3 receptor; in [7]; on D(3) dopamine receptor; in [8]; on D(1A) dopamine receptor) was over 30 µM each time. The half-maximal activity concentration (AC50) on Thromboxane A2 receptor [9] is over 30 µM; in [10], over 30 µM; in assay [11] it was over 30 µM; at Acetylcholinesterase, over 30 µM; on Bile salt export pump it was 200 µM.
Consider `CO[C@H]1/C=C/O[C@@]2(C)Oc3c(C)c(O)c4c(O)c(c(/C=N/N5CCN(C)CC5)c(O)c4c3C2=O)NC(=O)/C(C)=C\C=C\[C@H](C)[C@H](O)[C@@H](C)[C@@H](O)[C@@H](C)[C@H](OC(C)=O)[C@@H]1C` [RIFAMPIN], for which the results for the concentration at half-maximal activity (AC50) (in assay [7]; on Bile salt export pump) were over 30 µM and 9.6 µM, respectively.
As to `CC(N)C12CC3CC(CC(C3)C1)C2` (stereo not given) [RIMANTADINE], the AC50 was over 30 µM in [7] and over 300 µM on Bile salt export pump.
For `CN(C)CCc1c[nH]c2ccc(Cn3cncn3)cc12` [RIZATRIPTAN] the same measures were over 30 µM and over 300 µM.
For `CC(C)c1nc(N(C)S(C)(=O)=O)nc(-c2ccc(F)cc2)c1/C=C/[C@@H](O)C[C@@H](O)CC(=O)O` [ROSUVASTATIN] the same measures were over 30 µM and 160 µM.
For `Nc1ccc(S(=O)(=O)Nc2nccs2)cc1` [SULFATHIAZOLE] the same measures were over 30 µM and over 300 µM.
Turning to `O=C1C(CC[S+]([O-])c2ccccc2)C(=O)N(c2ccccc2)N1c1ccccc1` (stereo not given) [SULFINPYRAZONE], the half-maximal activity concentration (AC50) was over 30 µM in [7] and 24 µM on Bile salt export pump.
As for `C=CC[C@@H]1/C=C(\C)C[C@H](C)C[C@H](OC)[C@H]2O[C@@](O)(C(=O)C(=O)N3CCCC[C@H]3C(=O)O[C@H](/C(C)=C/[C@@H]3CC[C@@H](O)[C@H](OC)C3)[C@H](C)[C@@H](O)CC1=O)[C@H](C)C[C@@H]2OC` [TACROLIMUS ANHYDROUS], the concentration at half-maximal activity (AC50) in assay [7] is over 30 µM; at Bile salt export pump, 11 µM.
Turning to `COc1cc2nc(N3CCN(C(=O)C4CCCO4)CC3)nc(N)c2cc1OC` (stereo not given) [TERAZOSIN], the AC50 at Thromboxane A2 receptor [1] was over 30 µM; in assay [2], over 30 µM; in [3], over 30 µM; in [4], over 30 µM; in assay [5] it was over 30 µM; on Prothrombin, over 10 µM. For the same compound, the AC50 in assay [6] is over 30 µM; at Mu-type opioid receptor, over 30 µM; on Histamine H3 receptor it was over 30 µM; on D(3) dopamine receptor, over 30 µM; in assay [8], 11.8 µM; on D(1A) dopamine receptor it was 27.8 µM. The half-maximal activity concentration (AC50) at Thromboxane A2 receptor [9] was over 30 µM; in [10], over 30 µM; in assay [11], over 30 µM; at Acetylcholinesterase it was 22.9 µM; on Bile salt export pump it was over 300 µM.
Consider `CC(C)(C)NCC(O)c1cc(O)cc(O)c1` (stereo not given) [TERBUTALINE], for which the values for the AC50 (in assay [7]; on Bile salt export pump) were over 30 µM and over 300 µM, respectively.
For `CC(S)C(=O)NCC(=O)O` (stereo not given) [TIOPRONIN], the AC50 in assay [7] was over 30 µM; at Bile salt export pump, over 300 µM.
For `C[C@H](CCC(=O)O)[C@H]1CC[C@H]2[C@@H]3[C@@H](O)C[C@@H]4C[C@H](O)CC[C@]4(C)[C@H]3CC[C@]12C` [URSODIOL] the same measures were over 30 µM and 95 µM.
On to `Cc1onc(-c2ccccc2)c1-c1ccc(S(N)(=O)=O)cc1` [VALDECOXIB], for which the AC50 was over 30 µM on Thromboxane A2 receptor [1]; over 30 µM in [2]; 18.7 µM in assay [3]; over 30 µM in assay [4]; over 30 µM at Prothrombin; over 30 µM in [6]. Further, the half-maximal activity concentration (AC50) (on Mu-type opioid receptor; on Histamine H3 receptor; in [7]; on D(3) dopamine receptor; in [8]; at D(1A) dopamine receptor) was over 30 µM in each case. The half-maximal activity concentration (AC50) at Thromboxane A2 receptor [9] is over 30 µM; in [10], over 30 µM; in assay [11], 2.31 µM; at Acetylcholinesterase it was over 30 µM; at Bile salt export pump, 240 µM.
Consider `CCCC(CCC)C(=O)O` [VALPROIC ACID], for which the AC50 (at Thromboxane A2 receptor [1]; in assay [2]; in assay [3]; in assay [4]; in [5]; on Prothrombin) was over 30 µM in each case. For the same compound, the concentration at half-maximal activity (AC50) (in assay [6]; at Mu-type opioid receptor; on Histamine H3 receptor; on D(3) dopamine receptor; in assay [8]; at D(1A) dopamine receptor) was over 30 µM in each case. Besides, the AC50 at Thromboxane A2 receptor [9] is over 30 µM; in [10], over 30 µM; in assay [11], over 30 µM; at Acetylcholinesterase it was over 30 µM; on Bile salt export pump, over 300 µM.
